Source: US9340575B2, “Agonists and antagonists of the urotensinergic system” (INSTITUT NATIONAL DE LA RECHERCHE SCIENTIFIQUE, priority 2011, dated 2016)
Like-named read-outs stand apart in the source and are kept apart here. Square brackets hold non-standard residues; d marks the D form. Peptide text beside a SMILES is read from it. pGlu = O=C1CC[CH](C(=O)O)N1

Tests used:
[1] = molecular target: T1, human urotensin II receptor (UT) (Homo sapiens, UniProt Q9UKP6); experiment: Competitive radioligand binding on CHO-UT cells
T1 construct: expressed in transfected cells; host or cells: CHO cells (CHO-UT), stably transfected, G418 selection
T1 sequence (Q9UKP6 1-389): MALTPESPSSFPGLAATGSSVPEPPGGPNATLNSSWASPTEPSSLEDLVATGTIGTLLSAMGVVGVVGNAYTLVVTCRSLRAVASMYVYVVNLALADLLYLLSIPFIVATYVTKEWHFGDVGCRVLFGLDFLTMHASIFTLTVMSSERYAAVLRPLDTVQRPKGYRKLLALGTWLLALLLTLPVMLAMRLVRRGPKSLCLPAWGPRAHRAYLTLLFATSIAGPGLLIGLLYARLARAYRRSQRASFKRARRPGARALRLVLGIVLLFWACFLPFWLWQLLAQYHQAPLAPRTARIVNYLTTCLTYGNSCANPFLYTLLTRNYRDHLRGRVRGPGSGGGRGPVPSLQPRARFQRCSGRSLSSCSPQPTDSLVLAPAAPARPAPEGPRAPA
Method: Transfected CHO cells expressing the human urotensin receptor (CHO-UT) were maintained in Ham-F12 medium with 10% fetal bovine serum (FBS), 2 mM L-glutamine, 100 UI/mL each of penicillin and streptomycin, and 400 μg/mL G418. […] Binding assays were following known literature procedures using CHO cells stably transfected with hGPR14. […] After 90 min of incubation at room temperature, cells were washed, lysed, and the cell-bound radioactivity was quantified using a γ-counter. […] The cells were then washed, lysed, and the radioactivity counted on a γ-counter (1470 Automatic Gamma Counter, Perkin Elmer). Binding and functional experiments were performed at least in triplicate and data, expressed as mean±S.E.M, were analyzed using the Prism software (Graph Pad Software, San Diego, Calif.). In all experiments, n represents the total number of animals studied or individual assays performed. The EC50, pEC50, pIC50 values as well as the Emax value were determined from the concentration-response curves using a sigmoidal dose-response fit with variable slope. […] The slope is calculated from the double reciprocal plot of equiactive concentrations of agonist in the presence and absence of antagonist.

rat thoracic aorta rings [2] = type: cell-based; conditions: for Aortic Ring contraction pEC50: endothelium-denuded rat thoracic aorta; for Aortic Ring contraction Emax (%): percentage of contraction induced by KCl (40 mM)
Method: Binding and functional experiments were performed at least in triplicate and data, expressed as mean±S.E.M, were analyzed using the Prism software (Graph Pad Software, San Diego, Calif.). In all experiments, n represents the total number of animals studied or individual assays performed. The EC50, pEC50, pIC50 values as well as the Emax value were determined from the concentration-response curves using a sigmoidal dose-response fit with variable slope. […] The slope is calculated from the double reciprocal plot of equiactive concentrations of agonist in the presence and absence of antagonist.

anaesthetized rats = experiment: Hemodynamic assessment (arterial blood pressure) in anaesthetized rats; type: in vivo, rat
Method: Male Sprague-Dawley rats, weighing 350-400 g, were anaesthetized by isoflurane inhalation delivered in 100% oxygen (1 l/min) from an Ohmeda Tec 4 anaesthetic vaporizer (Somatechnology, Inc., Bloomfield, Conn., USA). Anaesthesia was maintained by mask inhalation of isoflurane vaporized at concentrations of up to 3% in the induction phase, at 1.5% during acute surgical procedures and at 0.8-1.0% during experimental observations. […]. […] A period of stabilisation of 30 min was observed and the following experimental protocols were then performed and arterial blood pressure was evaluated. During isoflurane inhalation, no breathing complications or changes in blood pressure were observed. […].
In a preliminary study, individual rats received a single i.v. injection of hUII ranging from 1 to 30 nmol/kg. A dose-response curve, reflecting the effect of hUII on the change in blood pressure, was then determined.
In this set of experiments, five groups of rats were used. […] […]. Hemodynamic changes were continuously captured by the pressure probe over a period of 1 h. The maximum rise and the maximum drop in blood pressure was determined and analyzed using the PowerLab software (ADInstruments, Colorado Springs, Colo., USA).
In the control group, the rats received two doses of hUII (10 nmol/kg) with a 30 min interval between the first and second injection.

rat thoracic aorta rings [3] = experiment: Antagonism of UII- or URP-induced contraction of rat aortic ring; type: cell-based; conditions: pretreatment 10^−6M, 15 min
Method: Male rats (Sprague-Dawley, 250-300 g) were killed by CO2 asphyxiation. The thoracic aorta was then cleared of surrounding tissues and excised from aortic arch to the diaphragm. From each vessel, conjunctive tissues were removed and the clean vessel was cut into 4 mm rings. The endothelium was removed by gently rubbing the vessel's intimal surface. All preparations were placed in 5 ml organ baths filled with oxygenated normal Krebs-Henselheit solution. Contractile responses to 40 mM KCl were used as control at the beginning and at the end of each experiment. Agonistic activity was measured by increasing the concentration of the peptide in the organ chamber (3×10^−11-3×10^−6 M). For antagonist behaviour, thoracic aortic rings were first exposed to URP derivative over a period of 15 min, and then cumulative concentration-response curves to hUII, URP or ET-1 (10^−10-3×10^−6 M) were constructed. The amplitude of the contraction induced by each concentration of peptide was expressed as a percentage of the KCl-induced contraction. Finally, the ability of the antagonist to reverse the hUII-induced contraction was also evaluated. Vessels were pre-contracted with 4 nM hUII (pre-determined EC80) and after the maximum contraction was attained, contractile tone was reversed by adding increasing log unit concentrations of URP derivative. […] Binding and functional experiments were performed at least in triplicate and data, expressed as mean±S.E.M, were analyzed using the Prism software (Graph Pad Software, San Diego, Calif.). In all experiments, n represents the total number of animals studied or individual assays performed. The EC50, pEC50, pIC50 values as well as the Emax value were determined from the concentration-response curves using a sigmoidal dose-response fit with variable slope. Non-competitive antagonist affinities (pKb) were determined using the method of Gaddum where equiactive concentrations of agonist, in the absence or presence of URP derivative, were compared in a linear regression. The resulting slope was used to calculate the equilibrium constant Kb using the following equation: Kb=[B]/(slope−1); where [B] is the antagonist concentration. The slope is calculated from the double reciprocal plot of equiactive concentrations of agonist in the presence and absence of antagonist.

rat thoracic aorta rings [4] = experiment: Effect on ET-1-induced contraction of rat aortic ring; type: cell-based; conditions: without [Bip^4]URP
Method: Male rats (Sprague-Dawley, 250-300 g) were killed by CO2 asphyxiation. The thoracic aorta was then cleared of surrounding tissues and excised from aortic arch to the diaphragm. From each vessel, conjunctive tissues were removed and the clean vessel was cut into 4 mm rings. The endothelium was removed by gently rubbing the vessel's intimal surface. All preparations were placed in 5 ml organ baths filled with oxygenated normal Krebs-Henselheit solution. Contractile responses to 40 mM KCl were used as control at the beginning and at the end of each experiment. Agonistic activity was measured by increasing the concentration of the peptide in the organ chamber (3×10^−11-3×10^−6 M). For antagonist behaviour, thoracic aortic rings were first exposed to URP derivative over a period of 15 min, and then cumulative concentration-response curves to hUII, URP or ET-1 (10^−10-3×10^−6 M) were constructed. The amplitude of the contraction induced by each concentration of peptide was expressed as a percentage of the KCl-induced contraction. Finally, the ability of the antagonist to reverse the hUII-induced contraction was also evaluated. Vessels were pre-contracted with 4 nM hUII (pre-determined EC80) and after the maximum contraction was attained, contractile tone was reversed by adding increasing log unit concentrations of URP derivative.

Row | Compound | Binding affinity for UT (in words) [1] | EC50 (rat thoracic aorta rings [2]) [nM] | Aortic Ring contraction pEC50 (rat thoracic aorta rings [2]) | Aortic Ring contraction Emax (%) (rat thoracic aorta rings [2]) | Agonist behaviour in aortic ring contraction (in words) (rat thoracic aorta rings [2]) | other results
1 | CC(C)[C@H](NC(=O)[C@@H]1CSSC[C@H](NC(=O)[C@H](C)N)C(=O)N[C@@H](Cc2ccccc2)C(=O)N[C@@H](Cc2c[nH]c3ccccc23)C(=O)N[C@@H](CCCCN)C(=O)N[C@@H](Cc2ccc(O)cc2)C(=O)N1)C(=O)O [Compound 2, reference compound] | high affinity | 7 | 8.09±0.18 | 100±6 | – | IC50 ([1]; Binding (125I-URP) IC50 (nM), radioligand 125I-URP, recombinant human UT): 31.8 nM; IC50 ([1]; Binding (125I-hUII) IC50 (nM), radioligand 125I-hUII, recombinant human UT): 12.4 nM; Binding (125I-hUII) pIC50 ([1]; radioligand 125I-hUII, recombinant human UT): 7.90 ± 0.11; Hemodynamic response to bolus i.v. injection (anaesthetized rats; 0.01 μmol/kg i.v.): biphasic hemodynamic response; Time of hypotension nadir (anaesthetized rats; 0.01 μmol/kg i.v.): ~6 min; Time of pressor phase peak (anaesthetized rats; 0.01 μmol/kg i.v.): ~1 min; Response to repeated injections (anaesthetized rats; 10 nmol/kg twice, 30 min interval): equivalent biphasic responses; Effect of prior URP injection on hUII hemodynamic response (anaesthetized rats; hUII 30 min after URP bolus, 10 nmol/kg): such observation was not made
2 | CC(NC(=O)C(NC(=O)CNC(=O)C(Cc1c[nH]cn1)NC(=O)C1CCC(=O)N1)C(C)O)C(=O)N1CCCC1C(=O)NC(CCC(=O)O)C(N)=O (stereo not drawn) [rUII(1-7), Pyr-His-Gly-Thr-Ala-Pro-Glu-NH2] ([pGlu]HGTAPE-NH2; configuration not given here) | – | – | – | – | unable to induce the contraction of rat aortic rings | Effect on URP-associated contraction curve (in words) (rat thoracic aorta rings [3]): significant rightward shift; Effect on rUII-induced contraction (in words) (rat thoracic aorta rings [3]): did not significantly alter
3 | endothelin-1 [ET-1, reference compound] | – | – | – | – | – | ET-1 Emax (rat thoracic aorta rings [4]): 119±6; ET-1 pEC50 (rat thoracic aorta rings [4]): 8.06±0.15
4 | CC(C)[C@H](NC(=O)[C@@H]1CSSC[C@H](NC(=O)[C@H](C)N)C(=O)N[C@@H](Cc2ccccc2)C(=O)N[C@H](c2ccccc2)C(=O)N[C@@H](CCCCN)C(=O)N[C@@H](Cc2ccc(O)cc2)C(=O)N1)C(=O)O [Compound 15, [D-Phg^4]URP] | high binding affinity | 117 | 6.93 ± 0.09 | 116 ± 5 | – | IC50 ([1]; 125I-hUII 0.2 nM, CHO-UT cells, 95% confidence limits in parentheses, read-out: Binding IC50): 29 nM

The next lines start with results.

Row | Binding affinity for UT (in words) [1] | EC50 (rat thoracic aorta rings [2]) [nM] | Aortic Ring contraction pEC50 (rat thoracic aorta rings [2]) | Compound | Aortic Ring contraction Emax (%) (rat thoracic aorta rings [2]) | Agonist behaviour in aortic ring contraction (in words) (rat thoracic aorta rings [2]) | other results
5 | high binding affinity | 22 | 7.66 ± 0.11 | CC(C)[C@H](NC(=O)[C@@H]1CSSC[C@H](NC(=O)[C@H](C)N)C(=O)N[C@@H](Cc2ccccc2)C(=O)N2CCc3ccccc3[C@H]2C(=O)N[C@@H](CCCCN)C(=O)N[C@@H](Cc2ccc(O)cc2)C(=O)N1)C(=O)O [Compound 16, H-Ala-Cys-Phe-Tiq-Lys-Tyr-Cys-Val-OH] | 126 ± 5 | contractile efficacy and potency comparable to the endogenous peptides | –
6 | low binding affinity | 181 | 6.42 ± 0.13 | CC(C)[C@H](NC(=O)[C@@H]1CSSC[C@H](NC(=O)[C@H](C)N)C(=O)N[C@@H](Cc2ccccc2)C(=O)N[C@H]2Cc3c([nH]c4ccccc34)CN(C2=O)[C@@H](CCCCN)C(=O)N[C@@H](Cc2ccc(O)cc2)C(=O)N1)C(=O)O [Compound 12, H-Ala-Cys-Phe-Aia-Lys-Tyr-Cys-Val-OH] | 51 ± 4 | – | –
